Laboratory results published in patent US8242118B2, “Arylsulfonamide derivatives for use as CCR3 antagonists in the treatment of inflammatory and immunological disorders” (Axikin Pharmaceuticals Inc., priority 2001, dated 2012).
pIC50: −log10 of the molar value.

How the values were obtained:
Human CCR3 = target: T1, Human CCR3 (Homo sapiens, UniProt P51677); experiment: Calcium mobilization assay, eotaxin-stimulated; type: cell-based; conditions: human CCR3-transformed K562 cells, 10 nM eotaxin; compounds of about 40 to 90% purity; read-out: Activity grade Ca2+ (IC50 class)
T1 construct: The cloned CCR3 cDNA was constructed with pcDNA3 vector and transfected into a IC562 cell line; expressed in transfected cells
T1 sequence (P51677 1-355): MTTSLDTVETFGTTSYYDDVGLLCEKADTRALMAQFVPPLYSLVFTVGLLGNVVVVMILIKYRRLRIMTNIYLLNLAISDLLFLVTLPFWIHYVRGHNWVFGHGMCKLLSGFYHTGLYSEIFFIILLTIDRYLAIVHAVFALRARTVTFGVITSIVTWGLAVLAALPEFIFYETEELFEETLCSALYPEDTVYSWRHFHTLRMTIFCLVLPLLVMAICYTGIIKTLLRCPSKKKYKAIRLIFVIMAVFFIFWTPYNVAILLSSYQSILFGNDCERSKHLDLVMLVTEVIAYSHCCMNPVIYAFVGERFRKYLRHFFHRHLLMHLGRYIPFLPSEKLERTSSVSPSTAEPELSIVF
Procedure, shortened: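 K562 cells transfected with human CCR3, pretreated 20–24 h with 5 mM sodium butyrate, loaded with Fluo-3AM. Compound added 10 min before stimulation with 10 nM (final) eotaxin; cytoplasmic calcium read over 60 s by FDSS, IC50 from inhibition curve.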

Row | SMILES | pIC50 (Human CCR3) | melting point
1 | Cc1ccccc1Nc1ccc([N+](=O)[O-])cc1S(=O)(=O)N1CCNCC1 [Example 3-3] | 5.00 to 6.00 | 
2 | Cc1cc(C)cc(Oc2ccc(S(=O)(=O)N(C)C)cc2S(=O)(=O)N2CCNCC2)c1.Cl [Example 10-2] | > 6.00 | 242 to 247 °C
3 | Cc1cc(C)cc(Oc2ccc(NC(=O)c3cccc4ccccc34)cc2S(=O)(=O)N2CCNCC2)c1 [Example 7-7] | 5.00 to 6.00 | 
4 | Cc1cc(C)cc(Oc2ccc([N+](=O)[O-])cc2S(=O)(=O)NCCN2CCCCC2)c1 [Example 4-2] | > 6.00 | 
5 | CCC(CC)N1CCN(S(=O)(=O)c2cc([N+](=O)[O-])ccc2Oc2cc(C)cc(C)c2)CC1 [Example 4-18] | 5.00 to 6.00 | 131 to 132 °C
6 | Cc1cc(C)cc(Oc2ccc([N+](=O)[O-])cc2S(=O)(=O)N2CCC(N(C)C)CC2)c1.Cl [Example 4-24] | > 6.00 | 262 to 264 °C
7 | Cc1cc(C)cc(Oc2ccc(NC(=O)C(C)(C)C)cc2S(=O)(=O)N2CCNCC2)c1 [Example 7-3] | < 5.00 | 
8 | O=[N+]([O-])c1ccc(Oc2cc(Cl)cc(Cl)c2)c(S(=O)(=O)N2CCC(N3CCCC3)C2)c1 (stereo not drawn) [Example 4-38] | > 6.00 | 
9 | CCN1CCN(S(=O)(=O)c2cc(Cl)ccc2Oc2cc(C)cc(C)c2)CC1 [Example 5-4] | > 6.00 | 120 to 122 °C
10 | Cc1cc(C)cc(Oc2ccc([N+](=O)[O-])cc2S(=O)(=O)N(C)CCN(C)C)c1 [Example 4-14] | > 6.00 | 75 to 77 °C
11 | CCN1CCN(S(=O)(=O)c2cc(I)ccc2Oc2cc(C)cc(C)c2)CC1 [Example 5-5] | > 6.00 | 133 to 134 °C
12 | COCCCN1CCN(S(=O)(=O)c2cc([N+](=O)[O-])ccc2Oc2cc(Cl)cc(Cl)c2)CC1 [Example 4-36] | > 6.00 | 145 °C
13 | CN1CCC(N(C)S(=O)(=O)c2cc([N+](=O)[O-])ccc2Oc2cc(Cl)cc(Cl)c2)C1 (stereo not drawn) [Example 4-23] | > 6.00 | 
14 | Cc1cc(C)cc(Oc2ccc(NC(=O)CCc3ccccc3)cc2S(=O)(=O)N2CCNCC2)c1 [Example 7-8] | < 5.00 | 
15 | CC1CCCCN1CCCNS(=O)(=O)c1cc([N+](=O)[O-])ccc1Sc1cc(Cl)cc(Cl)c1 (stereo not drawn) [Example 2-13] | > 6.00 | 
16 | CC(=O)Nc1ccc(Oc2cc(C)cc(C)c2)c(S(=O)(=O)N2CCNCC2)c1 [Example 7-2] | < 5.00 | 
17 | Cc1cc(C)cc(Oc2ccc([N+](=O)[O-])cc2S(=O)(=O)N2CCN(CC3CCCO3)CC2)c1 (stereo not drawn) [Example 4-26] | > 6.00 | 178 to 179 °C
18 | N#Cc1ccc(Oc2cc(Cl)cc(Cl)c2)c(S(=O)(=O)N2C[C@@H]3CCCN[C@@H]3C2)c1 [Example 13-5] | > 6.00 | 163 to 165 °C
19 | Cc1cc(C)cc(Oc2ccc([N+](=O)[O-])cc2S(=O)(=O)NCCN2CCOCC2)c1 [Example 4-3] | > 6.00 | 
20 | Cc1cc(C)cc(Oc2ccc(N)cc2S(=O)(=O)N2CCNCC2)c1.O=C(O)C(F)(F)F [Example 5-3] | < 5.00 | 133 to 135 °C

Row | SMILES | pIC50 (Human CCR3) | melting point
21 | O=[N+]([O-])c1ccc(Nc2cc(Cl)cc(Cl)c2)c(S(=O)(=O)N2CCNCC2)c1 [Example 3-2] | > 6.00 | 
22 | Cc1cc(C)cc(Oc2ccc(NC(=O)c3cccs3)cc2S(=O)(=O)N2CCNCC2)c1 [Example 7-9] | < 5.00 | 
23 | Cl.N[C@@H]1CCN(S(=O)(=O)c2cc([N+](=O)[O-])ccc2Sc2cc(Cl)cc(Cl)c2)C1 [Example 2-11] | > 6.00 | 270 °C
24 | Cc1ccc(N2CCN(S(=O)(=O)c3cc([N+](=O)[O-])ccc3Oc3cc(C)cc(C)c3)CC2)cc1 [Example 4-8] | < 5.00 | 168 to 170 °C
25 | Cc1ccc(Nc2ccc([N+](=O)[O-])cc2S(=O)(=O)N2CCNCC2)cc1 [Example 3-5] | 5.00 to 6.00 | 
26 | Cc1cc(C)cc(Oc2ccc([N+](=O)[O-])cc2S(=O)(=O)N2CC[C@@H](N(C)C)C2)c1 [Example 4-13] | > 6.00 | 115 to 116 °C
27 | O=[N+]([O-])c1ccc(Sc2cc(Cl)cc(Cl)c2)c(S(=O)(=O)N2CCC(N3CCCCC3)CC2)c1 [Example 2-3] | > 6.00 | 191 to 192 °C
28 | CCN(CC)C1CCN(S(=O)(=O)c2cc([N+](=O)[O-])ccc2Oc2cc(Cl)cc(Cl)c2)C1 (stereo not drawn) [Example 4-21] | > 6.00 | 120 to 121 °C
29 | Cc1cc(C)cc(Oc2ccc(I)cc2S(=O)(=O)N2CCNCC2)c1.Cl [Example 5-6] | > 6.00 | 241 to 243 °C
30 | N#Cc1ccc(Oc2cc(Cl)cc(Cl)c2)c(S(=O)(=O)N2CCCC3CN(Cc4ccccc4)CC32)c1 (stereo not drawn) [Example 13-2] | 5.00 to 6.00 | 90 to 93 °C
31 | Cc1cc(C)cc(Oc2ccc([N+](=O)[O-])cc2S(=O)(=O)N2CCN(C(C)C)CC2)c1 [Example 4-15] | > 6.00 | 129 to 131 °C
32 | O=[N+]([O-])c1ccc(Oc2cc(Cl)cc(Cl)c2)c(S(=O)(=O)N2CCN(CCC(F)(F)F)CC2)c1 [Example 4-34] | > 6.00 | 166 to 167 °C
33 | Cc1cc(C)cc(Oc2ccc([N+](=O)[O-])cc2S(=O)(=O)N2CCN(C3CCCCC3)CC2)c1 [Example 4-6] | > 6.00 | 190 to 192 °C
34 | CCN1CCC(N(CC)S(=O)(=O)c2cc([N+](=O)[O-])ccc2Oc2cc(C)cc(C)c2)C1 (stereo not drawn) [Example 4-12] | > 6.00 | 86 to 88 °C
35 | O=[N+]([O-])c1ccc(Sc2cc(Cl)cc(Cl)c2)c(S(=O)(=O)NCCN2CCCCC2)c1 [Example 2-24] | > 6.00 | 
36 | O=[N+]([O-])c1ccc(Sc2cc(Cl)cc(Cl)c2)c(S(=O)(=O)N2CCC(N3CCCC3)CC2)c1 [Example 2-22] | > 6.00 | 213 °C
37 | Cc1cc(C)cc(Oc2ccc([N+](=O)[O-])cc2S(=O)(=O)N2CCN(c3ccccc3)CC2)c1 [Example 4-7] | < 5.00 | 168 to 169 °C
38 | Cc1cc(C)cc(Oc2ccc([N+](=O)[O-])cc2S(=O)(=O)N2CCN(CCC(F)(F)F)CC2)c1 [Example 4-33] | > 6.00 | 
39 | O=[N+]([O-])c1ccc(Oc2cc(Cl)cc(Cl)c2)c(S(=O)(=O)N2CCN(CC3CCCO3)CC2)c1 (stereo not drawn) [Example 4-27] | > 6.00 | 182 to 183 °C
40 | Cc1cc(C)cc(Oc2ccc(NC(=O)CC(C)C)cc2S(=O)(=O)N2CCNCC2)c1 [Example 7-4] | < 5.00 | 

Row | SMILES | pIC50 (Human CCR3) | melting point
41 | CN(C)CCN(C)S(=O)(=O)c1cc([N+](=O)[O-])ccc1Oc1cc(Cl)cc(Cl)c1 [Example 4-20] | > 6.00 | 105 to 107 °C
42 | Cc1ccc(C(=O)Nc2ccc(Oc3cc(C)cc(C)c3)c(S(=O)(=O)N3CCNCC3)c2)cc1 [Example 7-6] | < 5.00 | 
43 | N[C@H]1CCN(S(=O)(=O)c2cc([N+](=O)[O-])ccc2Sc2cc(Cl)cc(Cl)c2)C1 [Example 2-12] | > 6.00 | 263 °C
44 | CCC(C)N1CCN(S(=O)(=O)c2cc([N+](=O)[O-])ccc2Oc2cc(C)cc(C)c2)CC1 (stereo not drawn) [Example 4-16] | > 6.00 | 134 to 135 °C
45 | Cc1cc(C)cc(Oc2cc(C)c(N)cc2S(=O)(=O)N2CCNCC2)c1.Cl.Cl [Example 5-7] | < 5.00 | 183 °C
46 | CCN1CCN(S(=O)(=O)c2cc([N+](=O)[O-])ccc2Oc2cc(C)cc(C)c2)CC1 [Example 4-5] | > 6.00 | 111 to 112 °C
47 | O=[N+]([O-])c1ccc(Oc2cc(Cl)cc(Cl)c2)c(S(=O)(=O)N2CCC[C@H]2CN2CCCC2)c1 [Example 4-22] | > 6.00 | 200 to 202 °C
48 | O=[N+]([O-])c1ccc(Oc2cc(Cl)cc(Cl)c2)c(S(=O)(=O)N2CCC(N3CCCCC3)CC2)c1 [Example 4-29] | > 6.00 | 173 to 174 °C
49 | CCCC(C)N1CCN(S(=O)(=O)c2cc([N+](=O)[O-])ccc2Oc2cc(C)cc(C)c2)CC1 (stereo not drawn) [Example 4-17] | > 6.00 | 93 to 95 °C
50 | Cc1cc(C)cc(Oc2ccc(NC(=O)c3ccccc3)cc2S(=O)(=O)N2CCNCC2)c1 [Example 7-5] | < 5.00 | 
51 | Cc1cc(C)cc(Oc2ccc([N+](=O)[O-])cc2S(=O)(=O)N2CCN(C3CCCC3)CC2)c1 [Example 4-19] | > 6.00 | 169 to 171 °C
52 | Cc1cccc(Nc2ccc([N+](=O)[O-])cc2S(=O)(=O)N2CCNCC2)c1 [Example 3-4] | 5.00 to 6.00 | 
53 | CN(C)CCN(C)S(=O)(=O)c1cc([N+](=O)[O-])ccc1Sc1cc(Cl)cc(Cl)c1 [Example 2-23] | > 6.00 | 102 °C
54 | COCCCN1CCN(S(=O)(=O)c2cc(C#N)ccc2Oc2cc(Cl)cc(Cl)c2)CC1 [Example 13-7] | > 6.00 | 240 °C
55 | Cc1cc(C)cc(Oc2ccc(F)cc2S(=O)(=O)N2CCNCC2)c1 [Example 6-3] | > 6.00 | 116 to 118 °C
56 | N#Cc1ccc(Oc2cc(Cl)cc(Cl)c2)c(S(=O)(=O)N2C[C@H]3C[C@@H]2CN3)c1 [Example 13-4] | > 6.00 | 311 to 312 °C
57 | O=[N+]([O-])c1ccc(Nc2ccccc2Cl)c(S(=O)(=O)N2CCNCC2)c1 [Example 3-6] | 5.00 to 6.00 | 
58 | Cc1cc(C)cc(Oc2ccc([N+](=O)[O-])cc2S(=O)(=O)N2CCN(C)CC2)c1 [Example 4-4] | > 6.00 | 131 to 132 °C
